Here are results for six compounds from paper PMC6051542 (MedChemComm, 2017).

Molecules are shown by their SMILES. Converted amounts (≈) assume the structure as drawn. Like-named read-outs stand apart in the source and are kept apart here.

The subject of assay [1] is E. coli cells, overexpression (gyrA/gyrB) (+/+). Put plainly: microbe, parasite or virus in culture. Format: cell-based. The conditions noted are these: Escherichia coli, induction + (IPTG).
For assay [2], the target named is DNA gyrase ATPase activity (Escherichia coli, UniProt P0AES4+P0AES6). Put plainly: ATPase activity of DNA gyrase. Type of assay: biochemical, E. coli. The conditions noted are these: up to a concentration of 100 μM.
The subject of assay [3] is E. coli cells. The conditions noted are these: cited from earlier work.
Assay [4] relates to gyrR strains derived from E. coli JW5503. Kind of assay: MIC against the five gyrR strains derived from E. coli JW5503. Type of assay: cell-based. The conditions noted are these: Escherichia coli, read-out: MIC against gyrR strains.
Assay [5] relates to E. coli JW5503 harboring pCA24N-gyrB. Format: cell-based.
Assay [6] relates to E. coli, Edwardsiella tarda, S. enterica enterica Typhimurium, and S. flexneri. Put plainly: MIC against susceptible gram-negative strains. Format: cell-based. The conditions noted are these: read-out: MICs against susceptible gram-negative strains.
Assay [7] has as its system gram-positive strains. Put plainly: MIC against all 9 gram-positive strains tested. Type of assay: cell-based. The conditions noted are these: read-out: MIC values against all 9 gram-positive strains tested.
For assay [8], the system named is E. coli BW25113. The conditions noted are these: wild-type E. coli BW25113; cited from earlier work.
Assay [9] concerns E. coli JW5503. The conditions noted are these: cited from earlier work.

Chain of DNA gyrase ATPase activity (P0AES4 whole entry, one chain of several): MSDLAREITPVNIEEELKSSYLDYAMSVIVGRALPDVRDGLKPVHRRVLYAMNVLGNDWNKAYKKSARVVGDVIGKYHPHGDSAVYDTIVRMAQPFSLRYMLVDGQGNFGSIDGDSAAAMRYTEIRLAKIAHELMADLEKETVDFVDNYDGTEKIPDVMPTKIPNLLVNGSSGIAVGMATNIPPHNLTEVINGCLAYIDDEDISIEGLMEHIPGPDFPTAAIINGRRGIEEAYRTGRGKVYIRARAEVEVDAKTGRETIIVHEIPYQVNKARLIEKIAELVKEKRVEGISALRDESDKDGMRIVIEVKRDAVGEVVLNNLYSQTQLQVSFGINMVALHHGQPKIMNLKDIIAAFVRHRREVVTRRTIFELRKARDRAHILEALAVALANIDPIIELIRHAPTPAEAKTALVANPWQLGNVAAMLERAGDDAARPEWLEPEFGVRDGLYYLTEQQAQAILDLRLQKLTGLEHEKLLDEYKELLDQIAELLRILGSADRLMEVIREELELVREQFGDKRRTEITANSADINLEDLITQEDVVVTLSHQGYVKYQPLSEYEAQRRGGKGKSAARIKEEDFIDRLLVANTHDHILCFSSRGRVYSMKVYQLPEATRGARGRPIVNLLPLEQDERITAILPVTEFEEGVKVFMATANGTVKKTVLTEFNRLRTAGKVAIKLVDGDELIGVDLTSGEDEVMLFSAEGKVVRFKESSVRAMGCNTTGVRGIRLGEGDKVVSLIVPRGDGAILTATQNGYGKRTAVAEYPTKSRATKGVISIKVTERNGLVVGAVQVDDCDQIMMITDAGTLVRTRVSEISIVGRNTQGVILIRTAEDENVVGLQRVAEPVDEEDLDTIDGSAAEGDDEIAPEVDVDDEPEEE

With `O=C(O)c1cn(C2CC2)c2cc(N3CCNCC3)c(F)cc2c1=O` [Compound 1, Ciprofloxacin], the MIC in assay [1] was 0.002 µg/mL; in assay [3] (E. coli cells before overexpression of DNA gyrase) it was 0.009 µg/mL (≈ 0.0272 µM); in [3] (E. coli cells with overexpression of DNA gyrase), 0.002 µg/mL (≈ 0.00604 µM); in assay [4], 1.6 to 3.2 µg/mL (≈ 4.83 to 9.66 µM). Moreover, the “inhibition of ATPase activity” value in assay [2] is “did not observe a decrease in ATPase activity”.

Turning to `CO[C@@H]1[C@@H](OC(N)=O)[C@@H](O)[C@H](Oc2ccc3c(O)c(NC(=O)c4ccc(O)c(CC=C(C)C)c4)c(=O)oc3c2C)OC1(C)C` [Compound 2, Novobiocin], the “highest concentration at which cultures grew” value in [5] was 51 µg/mL.

For `N#Cc1cccc(S(=O)(=O)N[C@@H]2CCN(Cc3ccc(-c4ccccc4)cc3)C2)c1` [Compound 3, (R)-N-(1-([1,1′-biphenyl]-4-ylmethyl)pyrrolidin-3-yl)-3-cyanobenzenesulfonamide], the “inhibition of ATPase activity” value in [2] is “did not inhibit the ATPase activity”. In assay [6], the MIC lay in the range of 2 to 16 µg/mL (≈ 4.79 to 38.3 µM).

Turning to `Cc1ccc(C(F)(F)F)cc1S(=O)(=O)N[C@@H]1CCN(Cc2ccc(OC3CC3)cc2)C1` [Compound 4, (R)-N-(1-(4-cyclopropoxybenzyl)pyrrolidin-3-yl)-2-methyl-5-(trifluoromethyl)benzenesulfonamide], the MIC lay within 4 to 16 µg/mL (≈ 8.8 to 35.2 µM) in assay [7] and 2 to 16 µg/mL (≈ 4.4 to 35.2 µM) in assay [6].

Consider `Cc1ccc(C#N)cc1S(=O)(=O)N[C@@H]1CCN(Cc2ccc(-c3ccccc3)cc2)C1` [Compound 5, (R)-N-(1-([1,1′-biphenyl]-4-ylmethyl)pyrrolidin-3-yl)-5-cyano-2-methylbenzenesulfonamide], for which the MIC in assay [6] lay within 2 to 16 µg/mL (≈ 4.63 to 37.1 µM).

For the compound `Cc1ccc(F)cc1S(=O)(=O)N[C@@H]1CCN(Cc2ccc(-c3ccccc3)cc2)C1` [Compound 8, gyramide C], the MIC in assay [8] is above 160 µg/mL; in [9], 0.1 µg/mL (≈ 0.236 µM).
